In US20180008587A1, “THIOHYDANTOIN ANDROGEN RECEPTOR ANTAGONISTS FOR THE TREATMENT OF CANCER” (Jaressen Pharmaceutica NV, priority 2016, published 2018):
Numbering of substitutions follows the chain as printed.

Columns and labels:
[1] = biological target: T1, AR H874Y (Homo sapiens, UniProt P10275, H875Y); experiment: Luciferase transcriptional reporter assay, mutant AR, HepG2, antagonist mode; format: cell-based; conditions: HepG2, 90 pM R1881, 48 hours; * denotes incomplete inhibition (otherwise 100%); read-out: Antagonism; IC50, AR construct H874Y
T1 construct: expressed in transfected cells; host or cells: HepG2
T1 sequence (P10275 1-920 H875Y): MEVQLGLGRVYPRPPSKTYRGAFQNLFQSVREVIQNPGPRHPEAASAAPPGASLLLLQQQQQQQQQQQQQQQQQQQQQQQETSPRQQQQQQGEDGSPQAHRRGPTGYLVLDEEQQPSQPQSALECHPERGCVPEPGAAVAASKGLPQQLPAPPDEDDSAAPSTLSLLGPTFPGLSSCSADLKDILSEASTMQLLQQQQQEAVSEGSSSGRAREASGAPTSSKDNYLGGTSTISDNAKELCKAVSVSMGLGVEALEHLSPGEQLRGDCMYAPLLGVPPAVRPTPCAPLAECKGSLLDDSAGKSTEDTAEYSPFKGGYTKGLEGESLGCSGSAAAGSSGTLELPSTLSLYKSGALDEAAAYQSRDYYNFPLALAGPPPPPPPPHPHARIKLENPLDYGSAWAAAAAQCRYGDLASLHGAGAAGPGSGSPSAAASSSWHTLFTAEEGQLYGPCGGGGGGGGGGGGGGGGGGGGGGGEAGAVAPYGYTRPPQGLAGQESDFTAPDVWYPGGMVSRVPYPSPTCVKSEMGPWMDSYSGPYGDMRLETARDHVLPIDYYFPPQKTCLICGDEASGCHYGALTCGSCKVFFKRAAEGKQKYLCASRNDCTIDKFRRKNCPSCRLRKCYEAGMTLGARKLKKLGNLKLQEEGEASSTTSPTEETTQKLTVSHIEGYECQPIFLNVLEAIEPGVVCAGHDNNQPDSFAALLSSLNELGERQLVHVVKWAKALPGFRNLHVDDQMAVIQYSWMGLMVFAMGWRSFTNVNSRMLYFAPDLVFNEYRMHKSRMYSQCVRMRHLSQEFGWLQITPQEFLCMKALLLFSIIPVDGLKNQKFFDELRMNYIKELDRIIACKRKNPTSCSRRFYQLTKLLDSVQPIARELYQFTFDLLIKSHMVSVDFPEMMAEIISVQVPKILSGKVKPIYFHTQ
Method: (§1) HepG2 cells were maintained in EMEM supplemented with 10% FBS. One day before transfection, the media was changed to EMEM with 10% CSS. T-150 flasks were transiently transfected using 120 μL Lipofectamine 2000 (Life Technologies), 30 μg mutant cDNA (expression vector)—mutant cDNA tested were L701H, T877A, W741C and H874Y—and 40 μg 4×ARE-Luciferase (reporter vector) in OptiMEM and the flasks were incubated overnight. Cells were then trypsinized, counted and resuspended at 500,000 cells/mL. For agonist mode, the compounds of Formula (I) are serially diluted and 50 μL of the compound added per well. 50 μL of the cells are added to each well and incubated for 48 hours. For antagonist mode, a final concentration of 90 pM R1881 was added to the diluted compounds and incubated for 48 hours. The plates were then assayed using SteadyGlo and read on the Envision. Percent Stimulation and Inhibition is determined and analyzed using GraphPad Prism.
(§2) All values are calculated relative to the activity of R1881 induced androgen receptor activity (n≧3).

[2] = biological target: T2, AR W741C (Homo sapiens, UniProt P10275, W742C); experiment: as above; format: cell-based; conditions: HepG2, 90 pM R1881, 48 hours; * denotes incomplete inhibition (otherwise 100%); read-out: Antagonism; IC50, AR construct W741C
T2 construct: expressed in transfected cells; host or cells: HepG2
T2 sequence (P10275 1-920 W742C): T1 sequence (P10275 1-920 H875Y) with W742C, Y875H
Method: as §1, §2

With `N#Cc1ncc(N2C(=O)C3(CCC3)N(c3ccc(OC4CCNCC4)cc3)C2=S)cc1C(F)(F)F` [Cpd 35, 5-[5-oxo-8-[4-(4-piperidyloxy)phenyl]-7-thioxo-6,8-diazaspiro[3.4]octan-6-yl]-3-(trifluoromethyl)pyridine-2-carbonitrile] the IC50 [1] was 1.95 µM and the IC50 [2] was 5.79 µM.
